Assay results reported in patent publication US20020031818A1, “Modification of Mdm2 activity” (priority 2000, published 2002).

Key:
Mdm2 [1] = assay: In vivo ubiquitination of Mdm2 in EJ cells (HA-Ub, Mdm2 immunoprecipitation); type: cell-based, mouse
Excerpt: FIG. 14A-14E. A. In vitro ubiquitination of Mdm2 is inhibited by p19^ARF. GST-Mdm2 was subjected to an in vitro ubiquitination reaction using purified forms of E1, E2 and Ub-HA in the presence of ATP. Addition of bacculovirus-purified p19^ARF at the indicated concentrations blocked Mdm2 ubiquitination. Glutathione bead-coupled GST-Mdm2 in its ubiquitinated or non-ubiquitinated forms was washed and analyzed on immunoblots using antibodies to HA (upper panel). Middle panel depicts the level of Mdm2 expression and the lower panel, the level of p19^ARF added to the reaction. B. p19^ARF expression increases Mdm2 self-ubiquitination in EJ cells. EJ cells were transfected with the indicated plasmids. Cells were harvested 36 h later and proteins ([…]) were immunoprecipitated using Mdm2 antibodies (2A10). Immunoprecipitated material was washed and proteins loaded onto 10% SDS-PAGE, followed by immunoblot analysis with HA-antibodies to detect covalent HA-ubiquitin conjugation to Mdm2 (upper panel). Middle panel depicts level of immunoprecipitated Mdm2. Lower panel represents western analysis of p19^ARF expression levels. C. In vitro ubiquitination of Mdm2 in the presence of p19^ARF and protein extracts. […] The level of p53 immunoprecipitated was monitored in immunoblots using polyclonal antibodies to p53 (middle). […]

Mdm2 [2] = assay: 35S pulse-chase half-life of Mdm2 forms in p53/Mdm2 double null cells; type: cell-based, human; settings: lactacystin 25 μM
Method: C. p53/Mdm2 double null cells were transfected with the wt or K1 forms of Mdm2 and 24 h later were subjected to pulse chase labeling with ^35S-methionine in the absence or presence of lactacystin (25 μM) as indicated in Figure. Proteins prepared at the indicated time-points were immunoprecipitated using monoclonal antibodies to Mdm2 followed by autoradiography.
p53/Mdm2 double null cells were transfected with wt or K1 forms of Mdm2 expression vectors (4 μg). ^35S-methionine (1 mCi) was added to the cell cultures 24 h after transfection for 5 hr (pulse) followed by chase (2 mM cold methionine) for the indicated time-points. Protein extracts (1 mg) were used for immunopurification of Mdm2 using mixture of monoclonal antibodies (2A-10/3 F1). Immunoprecipitated Mdm2 was washed, separated on 10% SDS-PAGE and analyzed by autoradiography.

p53-mediated apoptosis = assay: Apoptosis assay (DNA fragmentation, flow cytometry) in Mdm2/p53 double null cells; type: cell-based; settings: co-expression with p53 in Mdm2/p53 double null cells
Method: FIGS. 5A-5D. Mdm2 sumoylation or mutation on Lys446 increases p53 ubiquitination and degradation and decreases p53 ability to mediate apoptosis. […] WCE was immunoprecipitated using monoclonal p53 antibodies. […] B. Ubiquitinated Mdm2 is less efficient in targeting the ubiquitination of p53. Bacterially expressed Mdm2 ([…]) was subjected to in vitro ubiquitination (self ubiquitination) in the presence of E1 [45 ng], E2 UbcH5b [1.5 μg] and ubiquitin [3 μg; SIGMA] and […] in ubiquitination buffer for the 0, 2, or 3 h (to ensure efficient self-ubiquitination) as indicated in Figure. To monitor the degree of Mdm2's ability to target the ubiquitination of p53, equal amounts of the self-ubiquitinated Mdm2 were extensively washed with TBS/0.5% Triton X-100 before incubated with bacculovirus-expressed and purified form of HA-tagged p53 for 2 h in the presence of E1, E2 and ubiquitin. The degree of p53 ubiquitination was monitored via immunoblot analysis using antibodies to HA. C. […]
Mdm2/p53 double null cells were transfected with Mdm2 constructs (as indicated) and marker plasmid encoding Green Fluorescent Protein, pEGFP (1 μg). […] The percentage of cells to the left of the diploid G0/1 peak, characteristic of hypodiploid cells, was calculated as the percentage of apoptotic cells.

C[S+]([O-])c1ccc(-c2nc(-c3ccncc3)c(-c3ccc(F)cc3)[nH]2)cc1 (centres unmarked) [SB203580]
p19ARF-mediated Mdm2 ubiquitination in inhibitor-treated cells (Mdm2 [1]; EJ cells with Flag-Mdm2, p19ARF, HA-Ub, PD 98059 50 μM, SB203580 10 and 100 μM, LY294002 50 μM, Herbimycin 1 μM): capable of attenuating p19^ARF-mediated Mdm2 ubiquitination | increase in Mdm2 ubiquitination after UV treatment in inhibitor-pretreated cells (Mdm2 [1]; SB203580 10 μM or LY294002 50 μM, 2 h prior to harvest): attenuated

CC(=O)N[C@@H](CSC(=O)[C@]1([C@@H](O)C(C)C)NC(=O)[C@H](C)[C@@H]1O)C(=O)O [lactacystin]
effect on half life of K1 form of Mdm2 (Mdm2 [2]; K1 expressing cells): remained unchanged | effect on half-life of p75 and p90 forms of Mdm2 (Mdm2 [2]; wt Mdm2 transfected cells): prolonged the half-life of both p75 and p90

K1: Mdm2 mutant with lysine 446 substituted for arginine
decrease in p53-induced apoptosis (cell death) compared with wt Mdm2 (p53-mediated apoptosis): greater decrease in degree of cell death
